Test: 28-day repeat-dose toxicity study, toxicokinetics of AMXT 1501 dicaprate
Assay type: in vivo, beagle dogs
Procedure: AMXT 1501 PK parameters were calculated for all AMXT 1501 dicaprate-dosed animals for the first dose (Day 1) and last dose (Day 28).

[1] = 8 mg/kg/day PO, DFMO 0, Day 1, M+F combined
[2] = 8 mg/kg/day PO, DFMO 0, Day 28, M+F combined
[3] = 8 mg/kg/day PO, DFMO 50 mg/kg/day, Day 28, M+F combined
[4] = 8 mg/kg/day PO, DFMO 200 mg/kg/day, Day 1, M+F combined
[5] = 16 mg/kg/day PO, DFMO 0, Day 1, M+F combined
[6] = 16 mg/kg/day PO, DFMO 0, Day 28, M+F combined
[7] = 16 mg/kg/day PO, DFMO 50 mg/kg/day, Day 28, M+F combined
[8] = 16 mg/kg/day PO, DFMO 200 mg/kg/day, Day 1, M+F combined
[9] = 32 mg/kg/day PO, DFMO 0, Day 1, M+F combined
[10] = 32 mg/kg/day PO, DFMO 0, Day 28, M+F combined

Question: For CCCCCCCCCCCCCCCC(=O)NCCCC[C@@H](N)C(=O)NCCCNCCCCNCCCN [AMXT 1501 dicaprate], which “AUC0-24 hr Max.” value [1] is on record?
Answer: The value was 2810 ng·h/mL.

Question: What about the “AUC0-24 hr Min.” value [1] of the same molecule?
Answer: The value was 374 ng·h/mL.

Question: What about the “Cmax Max.” value [1] of the same molecule?
Answer: The value was 158 ng/mL.

Question: And the “Cmax Min.” value [1]?
Answer: Its value is 30.8 ng/mL.

Question: What about the “Tmax Max.” value [1] of the same molecule?
Answer: The value was 12.0 h.

Question: What about the “Tmax Min.” value [1] of the same molecule?
Answer: The value was 2.00 h.

Question: What about the “AUC0-24 hr Max.” value [2] of the same molecule?
Answer: The value was 5230 ng·h/mL.

Question: What about the “AUC0-24 hr Min.” value [2] of the same molecule?
Answer: The value was 249 ng·h/mL.

Question: What about the “AUC0-t Max.” value [2] of the same molecule?
Answer: The value was 9470 ng·h/mL.

Question: And the “AUC0-t Min.” value [2]?
Answer: The value was 308 ng·h/mL.

Question: What about the “AUC0-∞ Min.” value [2] of the same molecule?
Answer: The value was 328 ng·h/mL.

Question: What about the “Cmax Max.” value [2] of the same molecule?
Answer: Its value is 360 ng/mL.

Question: And the “Cmax Min.” value [2]?
Answer: The value was 17.7 ng/mL.

Question: And the “Tmax Min.” value [2]?
Answer: The value was 0.00 h.

Question: What about the “t1/2 Max.” value [2] of the same molecule?
Answer: Its value is 28.8 h.

Question: And the “t1/2 Min.” value [2]?
Answer: The value was 12.6 h.

Question: And the “AUC0-24 hr Max.” value [3]?
Answer: The value was 4230 ng·h/mL.

Question: And the “AUC0-24 hr Min.” value [3]?
Answer: Its value is 366 ng·h/mL.

Question: And the “AUC0-t Max.” value [3]?
Answer: The value was 5010 ng·h/mL.

Question: What about the “AUC0-t Min.” value [3] of the same molecule?
Answer: The value was 1040 ng·h/mL.

Question: And the “AUC0-∞ Max.” value [3]?
Answer: The value was 5120 ng·h/mL.

Question: What about the “AUC0-∞ Min.” value [3] of the same molecule?
Answer: Its value is 1060 ng·h/mL.

Question: And the “Cmax Max.” value [3]?
Answer: Its value is 275 ng/mL.

Question: What about the “Cmax Min.” value [3] of the same molecule?
Answer: The value was 48.0 ng/mL.

Question: What about the “Tmax Max.” value [3] of the same molecule?
Answer: The value was 12.0 h.

Question: What about the “Tmax Min.” value [3] of the same molecule?
Answer: Its value is 0.00 h.

Question: And the “t1/2 Max.” value [3]?
Answer: Its value is 24.9 h.

Question: And the “t1/2 Min.” value [3]?
Answer: Its value is 8.85 h.

Question: What about the “AUC0-24 hr Max.” value [4] of the same molecule?
Answer: The value was 2670 ng·h/mL.

Question: And the “AUC0-24 hr Min.” value [4]?
Answer: The value was 323 ng·h/mL.

Question: What about the “Cmax Max.” value [4] of the same molecule?
Answer: The value was 182 ng/mL.

Question: And the “Cmax Min.” value [4]?
Answer: Its value is 35.2 ng/mL.

Question: What about the “Tmax Max.” value [4] of the same molecule?
Answer: The value was 12.0 h.

Question: What about the “AUC0-24 hr Max.” value [5] of the same molecule?
Answer: The value was 6350 ng·h/mL.

Question: What about the “AUC0-24 hr Min.” value [5] of the same molecule?
Answer: The value was 104 ng·h/mL.

Question: And the “Cmax Max.” value [5]?
Answer: The value was 408 ng/mL.

Question: And the “Cmax Min.” value [5]?
Answer: The value was 10.4 ng/mL.

Question: What about the “Tmax Max.” value [5] of the same molecule?
Answer: Its value is 12.0 h.

Question: What about the “Tmax Min.” value [5] of the same molecule?
Answer: Its value is 2.00 h.

Question: And the “AUC0-24 hr Max.” value [6]?
Answer: Its value is 7800 ng·h/mL.

Question: What about the “AUC0-24 hr Min.” value [6] of the same molecule?
Answer: The value was 1320 ng·h/mL.

Question: And the “AUC0-t Max.” value [6]?
Answer: Its value is 10800 ng·h/mL.

Question: And the “AUC0-t Min.” value [6]?
Answer: Its value is 4870 ng·h/mL.

Question: What about the “AUC0-∞ Max.” value [6] of the same molecule?
Answer: The value was 10800 ng·h/mL.

Question: And the “AUC0-∞ Min.” value [6]?
Answer: The value was 4910 ng·h/mL.

Question: What about the “Cmax Max.” value [6] of the same molecule?
Answer: Its value is 408 ng/mL.

Question: And the “Cmax Min.” value [6]?
Answer: Its value is 109 ng/mL.

Question: What about the “Tmax Max.” value [6] of the same molecule?
Answer: Its value is 12.0 h.

Question: What about the “Tmax Min.” value [6] of the same molecule?
Answer: The value was 0.00 h.

Question: What about the “t1/2 Max.” value [6] of the same molecule?
Answer: Its value is 35.8 h.

Question: And the “t1/2 Min.” value [6]?
Answer: The value was 10.1 h.

Question: And the “AUC0-24 hr Max.” value [7]?
Answer: Its value is 10800 ng·h/mL.

Question: What about the “AUC0-24 hr Min.” value [7] of the same molecule?
Answer: The value was 1480 ng·h/mL.

Question: And the “AUC0-t Max.” value [7]?
Answer: The value was 22300 ng·h/mL.

Question: What about the “AUC0-t Min.” value [7] of the same molecule?
Answer: Its value is 3410 ng·h/mL.

Question: What about the “AUC0-∞ Max.” value [7] of the same molecule?
Answer: The value was 22600 ng·h/mL.

Question: What about the “AUC0-∞ Min.” value [7] of the same molecule?
Answer: Its value is 3610 ng·h/mL.

Question: What about the “Cmax Max.” value [7] of the same molecule?
Answer: The value was 578 ng/mL.

Question: And the “Cmax Min.” value [7]?
Answer: Its value is 98.4 ng/mL.

Question: What about the “Tmax Max.” value [7] of the same molecule?
Answer: The value was 12.0 h.

Question: What about the “Tmax Min.” value [7] of the same molecule?
Answer: Its value is 0.00 h.

Question: What about the “t1/2 Max.” value [7] of the same molecule?
Answer: Its value is 69.4 h.

Question: What about the “t1/2 Min.” value [7] of the same molecule?
Answer: Its value is 26.4 h.

Question: What about the “AUC0-24 hr Max.” value [8] of the same molecule?
Answer: Its value is 4280 ng·h/mL.

Question: And the “AUC0-24 hr Min.” value [8]?
Answer: The value was 94.4 ng·h/mL.

Question: And the “Cmax Max.” value [8]?
Answer: The value was 263 ng/mL.

Question: What about the “Cmax Min.” value [8] of the same molecule?
Answer: The value was 7.27 ng/mL.

Question: And the “Tmax Max.” value [8]?
Answer: Its value is 12.0 h.

Question: And the “AUC0-24 hr Max.” value [9]?
Answer: Its value is 6590 ng·h/mL.

Question: And the “AUC0-24 hr Min.” value [9]?
Answer: The value was 999 ng·h/mL.

Question: And the “Cmax Max.” value [9]?
Answer: The value was 353 ng/mL.

Question: What about the “Cmax Min.” value [9] of the same molecule?
Answer: The value was 58.2 ng/mL.

Question: And the “Tmax Max.” value [9]?
Answer: Its value is 12.0 h.

Question: And the “Tmax Min.” value [9]?
Answer: The value was 2.00 h.

Question: And the “AUC0-24 hr Max.” value [10]?
Answer: Its value is 16600 ng·h/mL.

Question: What about the “AUC0-24 hr Min.” value [10] of the same molecule?
Answer: Its value is 2830 ng·h/mL.

Question: What about the “AUC0-t Max.” value [10] of the same molecule?
Answer: The value was 41500 ng·h/mL.

Question: And the “AUC0-t Min.” value [10]?
Answer: The value was 8730 ng·h/mL.

Question: And the “AUC0-∞ Max.” value [10]?
Answer: The value was 41700 ng·h/mL.

Question: What about the “AUC0-∞ Min.” value [10] of the same molecule?
Answer: Its value is 8810 ng·h/mL.

Question: What about the “Cmax Max.” value [10] of the same molecule?
Answer: Its value is 1110 ng/mL.

Question: And the “Cmax Min.” value [10]?
Answer: Its value is 190 ng/mL.

Question: What about the “Tmax Max.” value [10] of the same molecule?
Answer: The value was 12.0 h.

Question: And the “Tmax Min.” value [10]?
Answer: The value was 0.00 h.

Question: And the “t1/2 Max.” value [10]?
Answer: The value was 61.1 h.

Question: And the “t1/2 Min.” value [10]?
Answer: The value was 27.3 h.

Question: What about the “dose-proportionality of plasma levels of AMXT 1501” value (8, 16 and 32 mg/kg/day, Day 1 and Day 28, enterically-coated tablets) of the same molecule?
Answer: The value was “approximately dose-proportional increases”.

Question: And the half-life at 28 days (beagle, dog, plasma, oral, Day 28, all dose groups, read-out: Day 28 individual animal AMXT 1501 t1/2 values)?
Answer: The half-life at 28 days was 8.85 to 69.4 h.

Question: And the AUC(0-t) (both sexes, beagle, dog, plasma, po, 8 mg/kg/day, 8 mg/kg/day PO, DFMO 0, Day 1, M+F combined, read-out: AUC0-24 hr Mean)?
Answer: Its AUC(0-t) is 1330 ng·h/mL.
